# Measured values: patent US20130310396A1, “THIAZOLIDINE DERIVATIVES AND THEIR THERAPEUTIC USE” (priority 2011, published 2013)
# Experiment: in vitro
# Format: in vitro ADME
# Settings: human liver microsomes, 0.5 mg/mL microsomal protein, 1 mM NADPH, 37° C., N=1; for half-life: both sexes
# Experimental: The liver microsomes stability of compounds of Examples 1, 4 and 5 were compared with Teneligliptin.
# The metabolic stability of compounds of the invention was tested using pooled liver microsomes prepared from mixed-gender humans, with 1 mM NADPH. The samples were analyzed using an LTQ-Orbitrap XL mass spectrometer. HRMS was used to determine the peak area response ratio (peak area corresponding to test compound or control divided by that of an analytical internal standard) without running a standard curve. HRMS scan was performed in an appropriate m/z range in order to detect all plausible metabolites.
# The assay was run with a single incubation (N=1). Incubated test compounds at 37° C. in a buffer solution containing 0.5 mg/mL microsomal protein. Initiated the reaction by adding cofactors, sampling at 0, 10, 20, 30, and 60 minutes. Incubated positive control (5 μM testosterone) in parallel and sampling at 0, 5 10, and 30 minutes.
# The control compound testosterone was run in parallel to verify the enzymatic activity of the microsomes. After the final time point, fluorimetry was used to confirm the addition of NADPH to the reaction mixture. T1/2 of control met the internal acceptance criteria.
# Column: Thermo BDS Hypersil C18 30×2.0 mm, 3 μm, with guard column M.P. Buffer: 25 mM ammonium formate buffer, pH 3.5 Aqueous Reservoir (A): 90% water, 10% buffer Organic Reservoir (B): 90% acetonitrile, 10% buffer
SMILES,half-life [h],Percentage Remaining 0 min [%],Percentage Remaining 10 min [%],Percentage Remaining 20 min [%],Percentage Remaining 30 min [%],Percentage Remaining 60 min [%]
"[2H]C1([2H])CSC([2H])([2H])N1C(=O)C1CC(N2CCN(c3cc(C)nn3-c3ccccc3)CC2)CN1 [Example 1, ((2S,4S)-4-(4-(3-Methyl-1-phenyl-1H-pyrazol-5-yl)piperazin-1-yl)pyrrolidin-2-yl)(2,2,4,4-D4-thiazolidin-3-yl)methanone]",> 1,100,92,85,70,60
"[2H]c1ccc(-n2nc(C)cc2N2CCN([C@@H]3CN[C@H](C(=O)N4CCSC4)C3)CC2)cc1 [Example 4, ((2S,4S)-4-(4-(1-(4-D-Phenyl)-3-methyl-1H-pyrazol-5-yl)piperazin-1-yl)pyrrolidin-2-yl)(thiazolidin-3-yl)methanone]",> 1,100,95,87,75,65
[2H][C@@]1(N2CCN(c3cc(C)nn3-c3ccccc3)CC2)CN[C@H](C(=O)N2CCSC2)C1 [Example 5],> 1,100,90,87,70,60
"Cc1cc(N2CCN([C@@H]3CN[C@H](C(=O)N4CCSC4)C3)CC2)n(-c2ccccc2)n1 [Teneligliptin, ((2S,4S)-4-(4-(3-methyl-1-phenyl-1H-pyrazol-5-yl)piperazin-1-yl)pyrrolidin-2-yl)(thiazolidin-3-yl)methanone, reference compound]",> 1,100,90,85,65,55
